Source: ChEMBL document CHEMBL1201862, “PubChem BioAssay data set” (2004)
One block for each molecule: values may come before it. Active and inactive are the calls of the source.

What was measured:
HEK293 [1] = assay: inhibition of NOD1-driven NF-kB reporter – cell-based, luminescence, uHTS, primary screen (AID 1578); format: functional; conditions: Homo sapiens
[2] = molecular target: Nucleotide-binding oligomerization domain-containing protein 2 (Homo sapiens, UniProt Q9HC29); assay: inhibition of NOD2-driven NF-kB reporter – cell-based, luminescence, uHTS, HEK293 (AID 1566); format: functional
Sequence of Nucleotide-binding oligomerization domain-containing protein 2 (Q9HC29 whole entry, the tested form may be a part): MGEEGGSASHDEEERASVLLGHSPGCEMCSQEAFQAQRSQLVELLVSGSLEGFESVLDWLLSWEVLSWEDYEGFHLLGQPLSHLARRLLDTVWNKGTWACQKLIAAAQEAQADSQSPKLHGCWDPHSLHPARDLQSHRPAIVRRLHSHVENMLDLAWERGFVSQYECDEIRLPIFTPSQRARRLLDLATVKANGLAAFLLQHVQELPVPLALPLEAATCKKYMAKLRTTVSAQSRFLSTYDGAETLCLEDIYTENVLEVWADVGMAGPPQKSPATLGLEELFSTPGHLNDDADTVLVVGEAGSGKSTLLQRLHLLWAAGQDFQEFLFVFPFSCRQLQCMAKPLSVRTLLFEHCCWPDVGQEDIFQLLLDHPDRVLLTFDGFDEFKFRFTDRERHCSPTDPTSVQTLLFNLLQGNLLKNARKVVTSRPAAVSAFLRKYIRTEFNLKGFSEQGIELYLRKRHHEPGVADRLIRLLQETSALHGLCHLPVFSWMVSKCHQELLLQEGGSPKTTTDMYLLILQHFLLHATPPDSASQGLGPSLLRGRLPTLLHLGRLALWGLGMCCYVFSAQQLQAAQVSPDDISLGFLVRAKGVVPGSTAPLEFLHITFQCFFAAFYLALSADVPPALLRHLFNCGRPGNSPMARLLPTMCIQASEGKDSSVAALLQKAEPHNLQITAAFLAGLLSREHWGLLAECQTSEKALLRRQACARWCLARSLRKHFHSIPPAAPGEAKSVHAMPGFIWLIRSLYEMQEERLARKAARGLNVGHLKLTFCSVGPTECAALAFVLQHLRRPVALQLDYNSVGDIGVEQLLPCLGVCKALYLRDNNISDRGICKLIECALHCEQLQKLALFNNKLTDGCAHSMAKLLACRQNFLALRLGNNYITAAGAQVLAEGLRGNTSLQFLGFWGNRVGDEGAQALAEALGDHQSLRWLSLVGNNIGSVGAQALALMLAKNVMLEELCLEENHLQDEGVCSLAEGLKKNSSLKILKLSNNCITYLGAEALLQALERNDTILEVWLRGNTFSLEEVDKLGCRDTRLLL

HEK293 [3] = assay: cells; format: functional, cell-based; conditions: Homo sapiens
Interleukin-8 [4] = molecular target: T1, Interleukin-8 (Homo sapiens, UniProt P10145); assay: Dose Response confirmation of uHTS small molecule hits for cystic fibrosis induced NFkb Inhibitors in a PAF-induced IL8 counterscreen.; format: functional; conditions: read-out: IC50_Mean
T1 sequence (P10145 whole entry): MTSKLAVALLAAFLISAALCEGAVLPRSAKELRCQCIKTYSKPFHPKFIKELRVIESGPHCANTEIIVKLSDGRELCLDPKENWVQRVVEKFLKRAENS

HEK293 [5] = assay: cells; format: functional, cell-based; conditions: Homo sapiens; remark: listed apart in the source
HEK293 [6] = assay: cells; format: functional, cell-based; conditions: Homo sapiens; remark: listed apart in the source
Interleukin-8 [7] = molecular target: T1, Interleukin-8; assay: Dose Response confirmation of uHTS small molecule hits for cystic fibrosis induced NFkb Inhibitors in a TNFa-induced IL8 counterscreen.; format: functional; conditions: read-out: IC50_Mean
HEK293 [8] = assay: NOD2 signaling inhibitors in MDP-stimulated cells, cell-based, uHTS, luminescence (AID 2001); format: functional; conditions: Homo sapiens
[9] = molecular target: Mitochondrial peptide methionine sulfoxide reductase (Bos taurus, UniProt P54149); assay: Absorbance-based biochemical high throughput dose response assay for activators of Methionine sulfoxide reductase A (MsrA).; format: functional
Sequence of Mitochondrial peptide methionine sulfoxide reductase (P54149 whole entry): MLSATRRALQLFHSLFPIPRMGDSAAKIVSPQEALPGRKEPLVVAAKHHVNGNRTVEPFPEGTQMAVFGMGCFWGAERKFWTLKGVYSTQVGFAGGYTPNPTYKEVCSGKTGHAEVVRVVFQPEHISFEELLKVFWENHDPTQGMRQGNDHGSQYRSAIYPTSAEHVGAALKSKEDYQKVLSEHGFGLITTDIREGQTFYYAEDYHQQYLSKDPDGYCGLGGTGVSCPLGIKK

Caspase-6 = molecular target: T2, Caspase-6 (Homo sapiens, UniProt P55212); assay: inhibition of CASP6 peptide cleavage – biochemical, VEID-R110 fluorescence, cherry-pick, dose response (AID 720632)
T2 sequence (P55212 whole entry): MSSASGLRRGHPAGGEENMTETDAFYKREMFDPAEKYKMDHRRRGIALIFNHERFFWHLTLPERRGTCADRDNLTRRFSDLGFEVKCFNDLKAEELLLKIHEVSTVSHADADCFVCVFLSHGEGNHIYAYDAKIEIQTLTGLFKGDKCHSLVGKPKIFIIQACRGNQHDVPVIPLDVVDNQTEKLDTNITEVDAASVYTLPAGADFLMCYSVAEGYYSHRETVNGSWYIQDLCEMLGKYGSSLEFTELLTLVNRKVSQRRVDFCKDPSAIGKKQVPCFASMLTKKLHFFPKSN

Caspase-8 = Caspase-8 (Homo sapiens, UniProt Q14790); assay: inhibitors of purified CASP8 protease – biochemical, Z-IETD-R110 fluorescence, cherry-picked samples, selectivity assay for caspase-6 inhibitor project, dose response (AID 743294)
Sequence of Caspase-8 (Q14790 217-374 limits assumed): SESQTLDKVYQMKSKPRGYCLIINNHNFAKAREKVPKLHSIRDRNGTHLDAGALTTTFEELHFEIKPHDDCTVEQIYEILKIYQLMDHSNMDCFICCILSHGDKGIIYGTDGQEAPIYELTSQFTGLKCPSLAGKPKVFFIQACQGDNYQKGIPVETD
Sequence of Caspase-8 (Q14790 385-479 limits assumed): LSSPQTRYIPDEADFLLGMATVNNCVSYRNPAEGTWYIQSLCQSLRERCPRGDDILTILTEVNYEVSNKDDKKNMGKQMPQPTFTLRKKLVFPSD

[10] = molecular target: Heat shock protein HSP 90-alpha (Homo sapiens, UniProt P07900); format: functional, organism-based
Caspase-7 = molecular target: T3, Caspase-7 (Homo sapiens, UniProt P55210); assay: caspase-7 enzyme inhibition, selectivity check – biochemical, DEVD-R110 fluorescence, cherry-pick, selectivity assay for caspase-6 inhibitor project, dose response (AID 743295); format: functional
T3 sequence (P55210 whole entry): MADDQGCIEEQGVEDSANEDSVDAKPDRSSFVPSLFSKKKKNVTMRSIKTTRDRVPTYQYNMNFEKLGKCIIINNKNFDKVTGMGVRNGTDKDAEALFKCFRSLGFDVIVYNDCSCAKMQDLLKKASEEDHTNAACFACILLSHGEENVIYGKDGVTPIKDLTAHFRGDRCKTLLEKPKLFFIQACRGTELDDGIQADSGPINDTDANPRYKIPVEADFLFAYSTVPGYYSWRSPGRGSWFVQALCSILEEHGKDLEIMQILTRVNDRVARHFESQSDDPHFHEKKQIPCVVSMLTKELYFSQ

[11] = molecular target: ATP-dependent translocase ABCB1 (Homo sapiens, UniProt P08183); assay: inhibition of P-gp mediated JC-1 efflux – Jurkat-DNR cells, flow cytometry, dose response (AID 1689); format: functional
Sequence of ATP-dependent translocase ABCB1 (P08183 whole entry): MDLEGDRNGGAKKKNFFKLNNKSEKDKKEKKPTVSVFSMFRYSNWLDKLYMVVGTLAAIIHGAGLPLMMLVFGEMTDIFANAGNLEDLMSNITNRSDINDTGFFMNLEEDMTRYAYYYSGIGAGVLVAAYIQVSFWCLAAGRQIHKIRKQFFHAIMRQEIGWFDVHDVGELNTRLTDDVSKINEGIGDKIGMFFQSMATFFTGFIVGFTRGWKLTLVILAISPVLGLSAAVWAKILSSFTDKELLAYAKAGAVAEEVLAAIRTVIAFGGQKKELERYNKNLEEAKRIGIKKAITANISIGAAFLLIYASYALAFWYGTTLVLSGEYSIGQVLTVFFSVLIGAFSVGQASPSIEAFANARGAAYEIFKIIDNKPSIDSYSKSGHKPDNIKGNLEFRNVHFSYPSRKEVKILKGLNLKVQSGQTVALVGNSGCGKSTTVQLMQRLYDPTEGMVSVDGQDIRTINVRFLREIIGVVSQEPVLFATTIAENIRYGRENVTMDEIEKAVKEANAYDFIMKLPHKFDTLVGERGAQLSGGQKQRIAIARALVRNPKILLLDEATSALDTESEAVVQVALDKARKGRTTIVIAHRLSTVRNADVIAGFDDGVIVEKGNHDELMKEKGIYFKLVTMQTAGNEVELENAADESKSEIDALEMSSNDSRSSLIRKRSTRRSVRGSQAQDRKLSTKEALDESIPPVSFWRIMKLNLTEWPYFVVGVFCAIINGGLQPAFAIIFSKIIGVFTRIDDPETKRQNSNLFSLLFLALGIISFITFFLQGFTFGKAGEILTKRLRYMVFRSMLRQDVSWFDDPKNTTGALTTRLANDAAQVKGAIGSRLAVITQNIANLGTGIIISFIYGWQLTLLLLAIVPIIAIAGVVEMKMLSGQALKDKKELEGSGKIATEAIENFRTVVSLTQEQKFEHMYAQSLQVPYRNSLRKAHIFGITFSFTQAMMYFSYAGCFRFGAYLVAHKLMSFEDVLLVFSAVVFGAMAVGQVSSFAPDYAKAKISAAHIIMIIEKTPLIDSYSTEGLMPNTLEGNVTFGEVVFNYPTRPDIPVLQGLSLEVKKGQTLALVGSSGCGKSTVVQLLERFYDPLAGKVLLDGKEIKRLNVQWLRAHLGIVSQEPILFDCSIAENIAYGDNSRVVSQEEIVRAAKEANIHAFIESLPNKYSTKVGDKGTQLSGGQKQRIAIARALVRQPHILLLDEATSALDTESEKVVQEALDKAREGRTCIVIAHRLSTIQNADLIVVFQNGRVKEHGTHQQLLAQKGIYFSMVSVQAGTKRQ

Melanocortin receptor 4 = Melanocortin receptor 4 (Homo sapiens, UniProt P32245); format: functional, cell-based;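 further: Cell-based assay with luminescence read-out, confirmatory dose-response testing for agonist activity of biased ligands at MC4R; human U2OS cells with tagged receptor and beta-arrestin; potency of agonists that increase receptor coupling to beta-arrestin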
Sequence of Melanocortin receptor 4 (P32245 whole entry): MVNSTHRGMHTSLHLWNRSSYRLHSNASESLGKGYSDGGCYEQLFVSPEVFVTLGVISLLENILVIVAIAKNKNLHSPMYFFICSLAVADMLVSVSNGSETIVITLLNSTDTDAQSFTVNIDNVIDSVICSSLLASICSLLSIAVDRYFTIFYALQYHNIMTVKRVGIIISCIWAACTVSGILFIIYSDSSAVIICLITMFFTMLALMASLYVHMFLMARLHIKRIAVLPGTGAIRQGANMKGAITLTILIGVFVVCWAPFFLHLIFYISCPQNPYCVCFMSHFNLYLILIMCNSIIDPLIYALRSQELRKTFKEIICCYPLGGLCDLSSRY

[12] = blockers of CRF-binding protein–CRF-R2 complex – cell-based, uHTS hits, 384-well, dose response (AID 651639); format: functional, Homo sapiens; conditions: read-out: IC50_Mean
[13] = molecular target: T4, High affinity choline transporter 1 (Homo sapiens, UniProt Q9GZV3); assay: human choline transporter blockers, potency – cell-based, 5-point CRC, membrane potential dye, dose response (AID 504840); format: functional
T4 sequence (Q9GZV3 whole entry): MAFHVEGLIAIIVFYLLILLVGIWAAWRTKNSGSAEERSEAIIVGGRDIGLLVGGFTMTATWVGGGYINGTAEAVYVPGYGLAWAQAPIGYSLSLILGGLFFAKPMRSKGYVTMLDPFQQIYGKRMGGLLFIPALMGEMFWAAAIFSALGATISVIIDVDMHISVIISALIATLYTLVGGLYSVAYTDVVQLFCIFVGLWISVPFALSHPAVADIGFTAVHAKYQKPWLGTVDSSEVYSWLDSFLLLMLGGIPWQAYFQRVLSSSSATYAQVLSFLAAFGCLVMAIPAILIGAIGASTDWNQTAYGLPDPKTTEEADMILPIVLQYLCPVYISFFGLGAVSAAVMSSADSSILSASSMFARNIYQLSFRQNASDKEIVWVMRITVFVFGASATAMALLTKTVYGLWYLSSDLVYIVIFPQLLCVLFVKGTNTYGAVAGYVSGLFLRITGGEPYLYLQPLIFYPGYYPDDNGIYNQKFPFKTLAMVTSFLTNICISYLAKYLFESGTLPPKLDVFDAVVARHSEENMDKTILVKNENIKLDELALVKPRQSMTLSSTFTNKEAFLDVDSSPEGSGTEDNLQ

[14] = molecular target: T5, Corticotropin-releasing factor receptor 2/Corticotropin-releasing factor-binding protein (Homo sapiens, UniProt P24387+Q13324); assay: activators of CRF receptor 2 with binding protein – uHTS hits, confirmation (AID 602473); format: functional; conditions: read-out: EC50_Mean
T5 sequence (Q13324 whole entry): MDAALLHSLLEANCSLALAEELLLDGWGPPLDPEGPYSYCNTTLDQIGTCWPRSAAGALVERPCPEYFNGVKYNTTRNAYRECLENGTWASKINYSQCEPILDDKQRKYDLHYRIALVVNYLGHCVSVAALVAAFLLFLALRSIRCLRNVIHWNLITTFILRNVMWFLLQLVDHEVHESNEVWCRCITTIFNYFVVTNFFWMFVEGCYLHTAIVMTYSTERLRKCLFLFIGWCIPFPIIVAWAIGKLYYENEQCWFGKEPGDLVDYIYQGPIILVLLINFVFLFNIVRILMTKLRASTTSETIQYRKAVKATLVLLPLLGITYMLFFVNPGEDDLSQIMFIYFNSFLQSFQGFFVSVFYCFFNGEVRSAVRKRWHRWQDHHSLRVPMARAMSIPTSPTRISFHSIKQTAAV
T5 sequence (P24387 whole entry): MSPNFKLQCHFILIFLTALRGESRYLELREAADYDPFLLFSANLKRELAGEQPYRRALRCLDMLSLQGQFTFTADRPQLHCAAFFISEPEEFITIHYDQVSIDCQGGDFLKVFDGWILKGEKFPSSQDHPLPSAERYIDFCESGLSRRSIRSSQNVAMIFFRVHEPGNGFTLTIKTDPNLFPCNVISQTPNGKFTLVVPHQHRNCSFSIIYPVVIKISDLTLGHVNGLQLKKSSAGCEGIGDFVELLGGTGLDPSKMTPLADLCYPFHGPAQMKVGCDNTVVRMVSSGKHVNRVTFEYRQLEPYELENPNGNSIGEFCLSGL

[15] = molecular target: T4, High affinity choline transporter 1; assay: human choline transporter blockers, potency – cell-based, 10-point CRC, membrane potential dye, dose response (AID 588401); format: functional;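 further: membrane potential dye fluorescence of choline-evoked depolarization via CHT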
[16] = molecular target: T5, Corticotropin-releasing factor receptor 2/Corticotropin-releasing factor-binding protein; assay: Dose Response confirmation of uHTS hits for small molecule antagonists of the CRF-binding protein and CRF-R2 receptor complex.; format: functional; conditions: read-out: IC50_Mean

SMILES: CCSc1nsc(NC(=O)Nc2cccc(C(C)=O)c2)n1
EC50 (HEK293 [1]): 4.27 µM (active) | EC50 [2]: 6.47 µM (active) | IC50 (HEK293 [3]): > 20 µM (inactive) | IC50 (Interleukin-8 [4]): 5.42 µM (active) | IC50 (HEK293 [5]): > 20 µM (inactive) | IC50 (HEK293 [6]): 1.27 µM (active) | IC50 (Interleukin-8 [7]): 1.77 µM (active) | IC50 (HEK293 [8]): 2.39 µM (active)

SMILES: CC(C)(C)c1ccc(NC(=O)COC(=O)c2ccc([N+](=O)[O-])s2)cc1
EC50 [9]: 54.7 µM (inactive) | AC50 (Caspase-6): 3.59 µM (active) | AC50 (Caspase-8): 37.4 µM (active) | AC50 [10]: 2.85 µM (active) | AC50 (Caspase-7): 21.7 µM (active)

SMILES: NC(Cc1ccc(Cl)cc1)c1csc(Nc2ccc(-c3ccccc3)nn2)n1 (stereo not given)
EC50 (Melanocortin receptor 4): > 89.2 µM (inactive)

Now from value to molecule:

EC50 [11]: 14.6 µM (inactive)
SMILES: Cc1nc2cc(-c3cccc(F)c3)nn2c(N2CCN(C(=O)c3ccco3)CC2)c1C

IC50 [12]: 18 µM (active) | IC50 [13]: 0.661 µM (inconclusive) | EC50 [14]: > 53 µM (inactive) | IC50 [15]: 4.01 µM (active) | IC50 [16]: 20.3 µM (active)
SMILES: CC(c1ccco1)N(C(=O)c1ccccc1NS(=O)(=O)c1ccc(Cl)c([N+](=O)[O-])c1)c1ccccn1 (stereo not given)
